# Patent publication US20230404989A1, “GRK2 INHIBITION BY PAROXETINE AMELIORATES OSTEOARTHRITIS” (THE PENN STATE RESEARCH FOUNDATION, priority 2020, published 2023)
# Tests used:
# Assay type in all cases: in vivo, mouse
# [1] = test system: Gas activity (cAMP content in cartilage); test: cAMP assay in tibial articular cartilage of drug-treated DMM mice
# Method: Drug treatment studies: In twelve-week old male wild type C57BL/6 mice that received DMM surgeries, vehicle (PBS), paroxetine (5 mg/kg/day), fluoxetine (5 mg/kg/day), gallein (10 mg/kg/day) or indomethacin (2.5 mg/kg/day) were administered daily by ip injection. Drug treatment was initiated 8 weeks following DMM to determine the role of GRK2 signaling in the progression of OA. Short term drug treatment study: To evaluate the acute effect of drug treatments, GRK2^f/f mice received sham or DMM surgery followed by treatment with vehicle, paroxetine, gallein, fluoxetine, or indomethacin with the doses indicated above for 1 week beginning at 8 weeks post DMM. All mice were sacrificed 9 weeks post DMM, 21 weeks of age, for analysis of OA progression. Gas activity was measured by quantifying cAMP content in cartilage pooled from 3 mice. Tibial cartilage was dissected out and snap frozen in liquid Nitrogen. As positive control, tibial cartilage obtained from normal mice was treated with 0.5 mM 3-isobutyl-1-methylxanthine (IBMX) for 30 minutes, followed by 0.1 mM Forskolin for 15 minutes, then snap frozen in liquid Nitrogen. For human cartilage cAMP content, 70 mg frozen cartilage were used. Frozen cartilage was pulverized using 500 μL lysis buffer as we have previously described (H. K. Le Bleu, Anal Biochem, 518, 134-138 (2017)). cAMP content was quantified using the Cyclic AMP XP Assay kit (Cell Signaling, #4339) and following manufacturer's protocol, with 0.5 mM IBMX added to the lysis buffer to prevent phosphodiesterase mediated cAMP degradation during the extraction process. cAMP levels in different groups were normalized to that of sham mice or the vehicle treated human cartilage.
# [2] = test system: ADAMTS5, MMP13, Aggrecan Neo, aggrecan in tibial articular cartilage; test: IF staining of tibial articular cartilage of drug-treated DMM mice; settings: for aggrecan expression (IF staining, whole tibial articular surface): daily ip week 8 to 12, versus vehicle; for ADAMTS5 expression (IF staining, uncalcified cartilage) / Aggrecan Neo expression (IF staining, uncalcified cartilage) / MMP13 expression (IF staining, uncalcified cartilage): daily treatment week 8 to 12
# Method: Drug treatment studies: In twelve-week old male wild type C57BL/6 mice that received DMM surgeries, vehicle (PBS), paroxetine (5 mg/kg/day), fluoxetine (5 mg/kg/day), gallein (10 mg/kg/day) or indomethacin (2.5 mg/kg/day) were administered daily by ip injection. Drug treatment was initiated 8 weeks following DMM to determine the role of GRK2 signaling in the progression of OA. Paraffin sections were deparaffinized in three changes of xylene for five minutes each, rehydrated in ethanol (two changes of 100% ethanol, followed by two changes of 95% ethanol, followed by one change of 70% ethanol) and rinsed twice in deionized water. Antigen retrieval was performed for 30 minutes at 37° C. using 0.4% pepsin (Sigma P-7000) in 0.1M hydrochloric acid (HCl) and was followed by permeabilization for 30 minutes at room temperature using Triton X in tris buffered saline (TBS). Sections were then blocked for 1 hour at room temperature in 10% normal goat serum in 1×TBS. Tissue sections were incubated overnight at 4° C. with the rabbit anti-mouse primary antibody specific for the target protein (detailed in Table 1). Following three 5-minute washes in 1×TBS, slides were incubated for 1 hour at room temperature with biotinylated goat anti-rabbit secondary antibody (Life Technologies, Waltham, MA, USA), washed again with 3 changes of 1×TBS and incubated for 1 hour at room temperature with Alexa fluor 647 Streptavidin. Finally, slides were washed with three changes of 1×TBS for 5 minutes each, followed by one wash with 1×TBS with tween 20 (TBST), and a final 5-minute wash in 1×TBS. Mounting and nuclear staining was performed using ProLong™ Gold antifade reagent with DAPI (Invitrogen, Waltham, MA, USA).
# [3] = test system: DMM mice; test: Anterior femoral synovial membrane thickness in DMM mice; settings: daily ip week 8 to 12, versus vehicle
# Method: Drug treatment studies: In twelve-week old male wild type C57BL/6 mice that received DMM surgeries, vehicle (PBS), paroxetine (5 mg/kg/day), fluoxetine (5 mg/kg/day), gallein (10 mg/kg/day) or indomethacin (2.5 mg/kg/day) were administered daily by ip injection. Drug treatment was initiated 8 weeks following DMM to determine the role of GRK2 signaling in the progression of OA. Using Safranin-O/Fast Green-stained sections, the OsteoMetrics system was used to quantify the above parameters on three sections from representative levels (50 μm apart) of the medial compartment of the joint for each sample. Live images of the center of the knee joint were collected through an Olympus microscope (10× objective) outfitted with a camera, a stylus was used to trace the regions of interest (ROIs). A blinded observer quantified uncalcified articular cartilage area, total chondrocyte number and matrix-producing chondrocyte number using the built-in area calculation algorithms and quantification functions of the OsteoMeasure® system. […] The calcified cartilage was determined with a line drawn along the tide mark, which is the naturally occurring line separating the calcified and uncalcified regions of the articular cartilage. A second line was drawn at the chondro-osseous junction where the calcified cartilage meets the subchondral bone. The uncalcified cartilage area was determined by subtracting the calcified cartilage area from the total area of cartilage. Total chondrocyte number and matrix-producing chondrocyte number were counted within the uncalcified cartilage region using count functions within the histomorphometry system. Matrix-producing chondrocytes were counted based on the region of Safranin-O staining within the extracellular matrix surrounding the articular chondrocyte, indicating anabolic signaling to maintain matrix homeostasis. Similarly, the anterior femoral synovial thickness was measured using OsteoMeasure® software. Synovial membrane thickness extending from anterior horn of the medial meniscus to the femur was determined by drawing a line from the inner insertion point on the femur towards the attachment on the meniscus. A second line was drawn from the outer insertion of the femur towards the attachment to the meniscus. The synovial thickness was calculated by dividing total synovial area by synovial perimeter.
# [4] = 7 days of drug treatment from 8 weeks post-DMM
SMILES,"cAMP levels in the articular cartilage [1, 4]",cAMP levels in the articular cartilage ([1]; daily ip week 8 to 12),"aggrecan expression (IF staining, whole tibial articular surface) [2]","ADAMTS5 expression (IF staining, uncalcified cartilage) [2]","Aggrecan Neo expression (IF staining, uncalcified cartilage) [2]","MMP13 expression (IF staining, uncalcified cartilage) [2]",synovial membrane thickness [3]
O=C1OC2(c3ccccc31)c1ccc(O)c(O)c1Oc1c2ccc(O)c1O [gallein],restored,restored,enhanced,significantly decreased,significantly decreased,significantly decreased,as effective as indomethacin
Fc1ccc([C@@H]2CCNC[C@H]2COc2ccc3c(c2)OCO3)cc1 [paroxetine],restored,restored,enhanced,significantly decreased,significantly decreased,significantly decreased,as effective as indomethacin
